Patent publication US20220187275A1, “SYSTEMS AND METHODS FOR DIRECTED FORMATION OF SIZE-CONTROLLED MULTI-CELLULAR STRUCTURES AND MEASUREMENT OF FORCES GENERATED BY THE SAME” (Forcyte Biotechnologies, Inc., priority 2019, published 2022)

Tested on: primary human airway smooth muscle cells
Details: 384-well plate, 24 hours serum starvation, histamine final concentration 100 micromolar, imaged at 1 minute intervals
Protocol: To achieve the result depicted in FIG. 9, approximately 2000-2500 primary human airway smooth muscle cells were seeded into each of several wells on a microplate comprising 384 wells each with at least 60 MCS-supporting micropatterns deposed on their surface, in Ham's F12 medium supplemented with 10% serum and incubated for 5 days. The MCS-supporting micropatterns comprised a fluorophore-conjugated material comprising human fibrinogen conjugated to Alexa Fluor® 546 dye.
On day 5, MCS comprising the primary airway smooth muscle cells were observed within the wells. At this point, the serum-supplemented medium was replaced with serum-free medium to induce the contractile phenotype in the MCS. […] This step was taken to maximize contractile responsiveness to agonist in the next step.
After 24 hours of serum starvation, the microplate containing the MCS was imaged using a fluorescent microscope prior to any chemical addition in the fluorescent channel that corresponds to the fluorophore used in the MCS-supporting micropattern.

In the case of `NCCc1c[nH]cn1` [histamine], the “contraction of the MCS (size of MCS-supporting micropatterns relative to baseline contracted state) after addition of agonist” value is reported as “contraction”.
